From PubChem BioAssay (NCI) come the findings set out here.

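Results reflect a 48-hour exposure of cells in 96-well plates to compound at five concentrations. At the TGI there is no net growth.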 Where a SMILES comes first, the peptide text is derived from it. [ ]: non-standard residue; d: D form. The star is where a group is joined. ξ: configuration not given here. ξF = NC(Cc1ccccc1)C(=O)O; Cbz = O=C(OCc1ccccc1)*

The subject of one test is IGROV1 ovarian. As to the kind of experiment: NCI tumour cell line growth inhibition, 48 h.
`CC(SC(=S)N1CCOCC1)C(=O)Nc1nnc(-c2ccc(Cl)cc2)o1` (stereo unspecified) returned a TGI above 100 µM.

As for `CC(=O)c1ccc(Nc2c3c(nc4ccccc24)CCCC3)cc1`, the TGI worked out at 23.8 µM.

Take `CCN1CCC(O)(c2ccc([N+](=O)[O-])cc2)C(C(=O)c2ccc([N+](=O)[O-])cc2)C1` (stereo unspecified): the TGI is 35.5 µM.

For `CCOC(=O)CNC(=O)C(Cc1ccccc1)NC(=O)OCc1ccccc1` (stereo unspecified) (Cbz-[ξF]-Gly-OEt), the TGI was above 100 µM.

`S=C1Cc2c(-c3ccccc3)cc(-c3cccc(Cl)c3)nc2-c2ccccc2N1`: the TGI amounted to 4.56 µM.

The molecule `N#Cc1sc2nc3ccccc3n2c1N` registered a TGI above 100 µM.

Turning to `O=C(CCc1cc(O)cc(O)c1)NCCc1cc(O)cc(OCc2ccccc2)c1`, the TGI was above 100 µM.

Molecule `N#Cc1c(NC(=O)C(F)(F)F)sc2c3c(=O)c4ccccc4c(=O)c=3oc3ccccc3c12` displayed a TGI of 48.7 µM.

For `Cc1c(C)c2c(c(N)c1C#N)C(=O)N(Cc1ccc(S(N)(=O)=O)cc1)C2=O`, the TGI is above 59.7 µM.

`CN(NC1=NCCO1)c1ccc2ccccc2c1` came in with a TGI above 100 µM.

`COC(=O)/C=C/c1ccc(OP(=O)(O)O)c(OC)c1` yielded a TGI above 100 µM.

`O=C(NCCN(CCNC(=O)c1cccc(O)c1O)CCNC(=O)c1cccc(O)c1O)c1cccc(O)c1O` came in with a TGI above 72.4 µM.

On to `COc1cc2nc(Cl)nc(NS(=O)(=O)c3cc4ccccc4s3)c2cc1OC`, for which the TGI worked out at 71.8 µM.

Molecule `COC(=O)/C=C(\C(=O)OC)c1cc(C)c2cc(C(C)C)ccc(C)c1-2` displayed a TGI above 100 µM.

`C[C@@H](CC(=O)OCc1ccccc1)OC1OC(COC(=O)C(C)(C)C)C(OC(=O)C(C)(C)C)C(OC(=O)C(C)(C)C)C1OC(=O)C(C)(C)C` (stereo partly specified) registered a TGI above 100 µM.

Consider `CC(C)(C)OC(=O)N(CCCCNC(=O)C(F)(F)F)CCCNC(=O)C(F)(F)F`, for which the TGI is above 100 µM.

`C=C1CC[C@@H](CCC2CCC3(OC2)O[C@]2(O)CC[C@@]3(C)OC2(C)C)C(C)(C)[C@H]1C/C=C1\CCOC1=O` (stereo partly specified) gave a TGI above 100 µM.

In turn, `Cc1nc2c(sc3nc4c(cc32)CCC4)c(=O)o1` gave a TGI of 59.1 µM.

The molecule `Cc1ccc(OCC2OC(n3cnc4c(Cl)nc(Nc5cc(Cl)cc(Cl)c5)nc43)CC2Oc2ccc(C)cc2)cc1` (stereo unspecified) showed a TGI above 100 µM.

As to `C=CCON(C(=O)OC(C)(C)C)C(C)(C)C`, the TGI is above 100 µM.

In turn, `COC(=O)c1c(C)cccc1/C=C1\Cc2ccc(C)c(C)c2C1=O` registered a TGI above 100 µM.

The molecule `COc1ccccc1C1c2cc3c(cc2OC2(OC)COC(=O)C12)OCO3` (stereo unspecified) returned a TGI above 100 µM.

Another test relates to MDA-MB-231 breast. As to the kind of experiment: NCI tumour cell line growth inhibition, 48 h.
In turn, `CC(SC(=S)N1CCOCC1)C(=O)Nc1nnc(-c2ccc(Cl)cc2)o1` (stereo unspecified) returned a TGI above 100 µM.

On to `CC(=O)c1ccc(Nc2c3c(nc4ccccc24)CCCC3)cc1`, for which the TGI was above 100 µM.

For the molecule `CCN1CCC(O)(c2ccc([N+](=O)[O-])cc2)C(C(=O)c2ccc([N+](=O)[O-])cc2)C1` (stereo unspecified), the TGI was 41.9 µM.

The molecule `CCOC(=O)CNC(=O)C(Cc1ccccc1)NC(=O)OCc1ccccc1` (stereo unspecified) (Cbz-[ξF]-Gly-OEt) returned a TGI above 100 µM.

On to `S=C1Cc2c(-c3ccccc3)cc(-c3cccc(Cl)c3)nc2-c2ccccc2N1`, for which the TGI was determined as 5.66 µM.

In the case of `N#Cc1sc2nc3ccccc3n2c1N`, the TGI was above 100 µM.

Turning to `O=C(CCc1cc(O)cc(O)c1)NCCc1cc(O)cc(OCc2ccccc2)c1`, the TGI was above 100 µM.

The molecule `N#Cc1c(NC(=O)C(F)(F)F)sc2c3c(=O)c4ccccc4c(=O)c=3oc3ccccc3c12` registered a TGI of 67 µM.

Regarding `Cc1c(C)c2c(c(N)c1C#N)C(=O)N(Cc1ccc(S(N)(=O)=O)cc1)C2=O`, the TGI worked out at 73.4 µM.

`CN(NC1=NCCO1)c1ccc2ccccc2c1` came in with a TGI above 100 µM.

In the case of `COC(=O)/C=C/c1ccc(OP(=O)(O)O)c(OC)c1`, the TGI was above 100 µM.

`O=C(NCCN(CCNC(=O)c1cccc(O)c1O)CCNC(=O)c1cccc(O)c1O)c1cccc(O)c1O` came in with a TGI above 100 µM.

In turn, `COc1cc2nc(Cl)nc(NS(=O)(=O)c3cc4ccccc4s3)c2cc1OC` registered a TGI of 71.7 µM.

Consider `COC(=O)/C=C(\C(=O)OC)c1cc(C)c2cc(C(C)C)ccc(C)c1-2`, for which the TGI was above 100 µM.

On to `C[C@@H](CC(=O)OCc1ccccc1)OC1OC(COC(=O)C(C)(C)C)C(OC(=O)C(C)(C)C)C(OC(=O)C(C)(C)C)C1OC(=O)C(C)(C)C` (stereo partly specified), for which the TGI was above 100 µM.

`CC(C)(C)OC(=O)N(CCCCNC(=O)C(F)(F)F)CCCNC(=O)C(F)(F)F` displayed a TGI above 100 µM.

`C=C1CC[C@@H](CCC2CCC3(OC2)O[C@]2(O)CC[C@@]3(C)OC2(C)C)C(C)(C)[C@H]1C/C=C1\CCOC1=O` (stereo partly specified) returned a TGI above 80.4 µM.

The molecule `Cc1nc2c(sc3nc4c(cc32)CCC4)c(=O)o1` registered a TGI above 100 µM.

`Cc1ccc(OCC2OC(n3cnc4c(Cl)nc(Nc5cc(Cl)cc(Cl)c5)nc43)CC2Oc2ccc(C)cc2)cc1` (stereo unspecified) came in with a TGI above 100 µM.

The molecule `C=CCON(C(=O)OC(C)(C)C)C(C)(C)C` came in with a TGI above 100 µM.

In turn, `COC(=O)c1c(C)cccc1/C=C1\Cc2ccc(C)c(C)c2C1=O` registered a TGI above 100 µM.

Regarding `COc1ccccc1C1c2cc3c(cc2OC2(OC)COC(=O)C12)OCO3` (stereo unspecified), the TGI is above 100 µM.

In the next test the test system is NCI-H226 lung. The test is described as follows: NCI tumour cell line growth inhibition, 48 h.
On to `CC(SC(=S)N1CCOCC1)C(=O)Nc1nnc(-c2ccc(Cl)cc2)o1` (stereo unspecified), for which the TGI is above 100 µM.

`CC(=O)c1ccc(Nc2c3c(nc4ccccc24)CCCC3)cc1` gave a TGI above 100 µM.

As for `CCN1CCC(O)(c2ccc([N+](=O)[O-])cc2)C(C(=O)c2ccc([N+](=O)[O-])cc2)C1` (stereo unspecified), the TGI came to 61.3 µM.

The molecule `CCOC(=O)CNC(=O)C(Cc1ccccc1)NC(=O)OCc1ccccc1` (stereo unspecified) (Cbz-[ξF]-Gly-OEt) yielded a TGI above 100 µM.

As for `S=C1Cc2c(-c3ccccc3)cc(-c3cccc(Cl)c3)nc2-c2ccccc2N1`, the TGI was 19.4 µM.

`N#Cc1sc2nc3ccccc3n2c1N` had a TGI above 100 µM.

For the molecule `O=C(CCc1cc(O)cc(O)c1)NCCc1cc(O)cc(OCc2ccccc2)c1`, the TGI was above 100 µM.

As for `N#Cc1c(NC(=O)C(F)(F)F)sc2c3c(=O)c4ccccc4c(=O)c=3oc3ccccc3c12`, the TGI was found to be 21.2 µM.

The molecule `Cc1c(C)c2c(c(N)c1C#N)C(=O)N(Cc1ccc(S(N)(=O)=O)cc1)C2=O` came in with a TGI above 62.9 µM.

For `CN(NC1=NCCO1)c1ccc2ccccc2c1`, the TGI is above 100 µM.

Turning to `COC(=O)/C=C/c1ccc(OP(=O)(O)O)c(OC)c1`, the TGI is above 100 µM.

For `O=C(NCCN(CCNC(=O)c1cccc(O)c1O)CCNC(=O)c1cccc(O)c1O)c1cccc(O)c1O`, the TGI stood at 85.6 µM.

Consider `COc1cc2nc(Cl)nc(NS(=O)(=O)c3cc4ccccc4s3)c2cc1OC`, for which the TGI was above 100 µM.

Regarding `COC(=O)/C=C(\C(=O)OC)c1cc(C)c2cc(C(C)C)ccc(C)c1-2`, the TGI is above 100 µM.

With `C[C@@H](CC(=O)OCc1ccccc1)OC1OC(COC(=O)C(C)(C)C)C(OC(=O)C(C)(C)C)C(OC(=O)C(C)(C)C)C1OC(=O)C(C)(C)C` (stereo partly specified), the TGI was above 100 µM.

As for `CC(C)(C)OC(=O)N(CCCCNC(=O)C(F)(F)F)CCCNC(=O)C(F)(F)F`, the TGI was above 100 µM.

As for `C=C1CC[C@@H](CCC2CCC3(OC2)O[C@]2(O)CC[C@@]3(C)OC2(C)C)C(C)(C)[C@H]1C/C=C1\CCOC1=O` (stereo partly specified), the TGI stood at 35.2 µM.

`Cc1nc2c(sc3nc4c(cc32)CCC4)c(=O)o1` displayed a TGI above 100 µM.

The molecule `Cc1ccc(OCC2OC(n3cnc4c(Cl)nc(Nc5cc(Cl)cc(Cl)c5)nc43)CC2Oc2ccc(C)cc2)cc1` (stereo unspecified) had a TGI above 100 µM.

Molecule `C=CCON(C(=O)OC(C)(C)C)C(C)(C)C` registered a TGI above 100 µM.

The molecule `COC(=O)c1c(C)cccc1/C=C1\Cc2ccc(C)c(C)c2C1=O` returned a TGI above 100 µM.

`COc1ccccc1C1c2cc3c(cc2OC2(OC)COC(=O)C12)OCO3` (stereo unspecified) came in with a TGI above 87.5 µM.
